Molecules are shown by their SMILES. Several values for one entry are separate records, joined by “and”; a condition that tells them apart may be missing. Equal values may be shown once. Read-outs that look alike come from different tables or passages of the source. Where a SMILES comes first, the peptide text is derived from it. Bridges are numbered along the chain shown (N, C = ends). Roman numbers before positions name the chains, in order.

For series [1], the target named is prolyl endopeptidase derived from Flavobacterium (Elizabethkingia meningoseptica, UniProt P27028). The series is described as follows: Prolyl endopeptidase inhibitory activity (Z-Gly-Pro-pNA substrate, p-nitroaniline at 410 nm). Format: biochemical. The settings on record: for IC50: 50% inhibitory concentration (IC50), 0.2 mM Z-Gly-Pro-pNA as substrate, sample in methanol, 30° C., pH 7.0; for inhibitory pattern / Ki: Dixon plot; for Ki: inhibitor constant Ki, various concentrations of substrate and inhibitor.
Sequence of prolyl endopeptidase derived from Flavobacterium (P27028 21-705): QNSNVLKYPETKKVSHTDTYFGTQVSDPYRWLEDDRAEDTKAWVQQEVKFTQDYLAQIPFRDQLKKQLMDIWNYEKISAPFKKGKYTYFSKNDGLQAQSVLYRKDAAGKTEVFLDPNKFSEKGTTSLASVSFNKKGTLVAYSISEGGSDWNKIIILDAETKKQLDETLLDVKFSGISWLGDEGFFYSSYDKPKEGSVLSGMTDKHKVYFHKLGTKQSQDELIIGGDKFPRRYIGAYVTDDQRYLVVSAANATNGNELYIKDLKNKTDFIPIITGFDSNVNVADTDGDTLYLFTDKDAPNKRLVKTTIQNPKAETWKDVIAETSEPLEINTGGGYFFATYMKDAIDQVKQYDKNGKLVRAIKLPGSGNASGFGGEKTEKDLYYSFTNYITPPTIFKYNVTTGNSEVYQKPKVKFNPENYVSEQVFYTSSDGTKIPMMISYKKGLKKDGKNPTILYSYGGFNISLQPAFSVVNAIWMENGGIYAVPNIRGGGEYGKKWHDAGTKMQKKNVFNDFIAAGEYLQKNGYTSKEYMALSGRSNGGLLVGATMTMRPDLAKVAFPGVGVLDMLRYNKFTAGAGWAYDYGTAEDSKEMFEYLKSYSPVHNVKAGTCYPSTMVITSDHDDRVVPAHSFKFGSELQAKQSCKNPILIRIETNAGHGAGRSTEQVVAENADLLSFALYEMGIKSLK

The subject of series [2] is Salmonella typhimurium SL 1102. In words: Antimicrobial activity, paper disc method. Format: cell-based. Particulars: 40 μg per disc. How it is done:
(§1) The antimicrobial activity of SNA-115 was determined in 24 bacteria, fungi, and yeasts by paper disc method. SNA-115 was placed on paper discs at an amount of 40 μg each and the disc was placed on the test plates. The test plates were cultured under optimal conditions of the test microorganisms.
The antimicrobial activity of SNA-115T compound was determined in 9 bacteria and fungi by paper disc method in an agar plate. SNA-115T was placed on paper discs at an amount of 40 μg each and the disc was placed on the test plates. The test plates were cultured under optimal conditions of the rest microorganisms. The inhibition zones of SNA-115 were also shown for the comparison.

The subject of series [3] is Pseudomonas aeruginosa N-10 (L-form). The series is described as follows: Antimicrobial activity, paper disc method. It counts as cell-based. The settings on record: 40 μg per disc.
The test system of series [4] is Bacillus subtilis rec^+. In words: Antimicrobial activity, paper disc method. It counts as cell-based. The settings on record: 40 μg per disc.
In series [5] the test system is Bacillus subtilis rec^-. The series is described as follows: Antimicrobial activity, paper disc method. Format: cell-based. Particulars: 40 μg per disc.
In series [6] the test system is Mycobacterium phlei IFO 3158. The series is described as follows: Antimicrobial activity, paper disc method. It counts as cell-based. The settings on record: 40 μg per disc.
In series [7] the test system is Xanthomonas oryzae IFO 3312. It counts as cell-based.
For series [8], the system named is Xanthomonas citri IFO 3781. The series is described as follows: Antimicrobial activity, paper disc method. Format: cell-based. Particulars: 40 μg per disc.
The subject of series [9] is Botrytis cinerea IFO 5365. The series is described as follows: Antimicrobial activity, paper disc method. It counts as cell-based. The settings on record: 40 μg per disc.
In series [10] the test system is Pyricularia oryzae IFO 5994. It counts as cell-based.
Series [11] can be described thus: Acute toxicity (intravenous injection).
Series [12] has as its system Human epidermoid carcinoma (oral) KB cells. The series is described as follows: Cytotoxicity, cell proliferation (MTT). It counts as cell-based. Particulars: 72 hrs culture. How it is done:
(§2) Human epidermoid carcinoma (oral) KB cells and mouse leukemia L1210 cells each were placed in a 96 wells microplate (2,000 cells/100 μl/well). The former cells were cultured in DMEM medium and the latter cells were cultured in RPMI 1640 medium, each containing 5% FCS. They were cultured in the presence of 5% CO2 at 37° C. for 24 hrs. Five μl each of a serial concentration of SNA-115 in methanol were added to the wells and cultured for 72 hrs. and cultured further 4 hrs. after the addition of 10 μl of 2.5 mg/ml MTT solution to produce formazan. The cultured mixture was centrifuged at 2,000 rpm for 2 min., the supernatant was removed, 100 μl of DMSO was added to the residue and the absorption at 540 nm was determined by an immunoreader. The cell proliferation inhibitory activity of samples was obtained from comparison of their ratios to that of control group.

Series [13] deals with mouse leukemia L1210 cells. The series is described as follows: Cytotoxicity, cell proliferation (MTT). The settings on record: 72 hrs culture. Format: cell-based. The protocol:
as §2

Series [14] concerns Alternaria mali IFO 8984. In words: Antimicrobial activity, paper disc method. It counts as cell-based. Particulars: 40 μg per disc. The protocol: as §1
For series [15], the system named is Candida albicans IFO 1594. The series is described as follows: Antimicrobial activity, paper disc method. The settings on record: 40 μg per disc. It counts as cell-based. How it is done:
as §1

Series [16] relates to Chlorella vulgaris. The series is described as follows: Antimicrobial activity, paper disc method. Format: cell-based. The settings on record: 40 μg per disc. The protocol: as §1
Series [17] deals with Colletotrichum lagenarium IFO 7513. The series is described as follows: Antimicrobial activity, paper disc method. Format: cell-based. Particulars: 40 μg per disc. The protocol:
as §1

In series [18] the test system is Escherichia coli AB 1157. The series is described as follows: Antimicrobial activity, paper disc method. Particulars: 40 μg per disc. Format: cell-based. How it is done:
as §1

Series [19] relates to Escherichia coli BE 1186. The series is described as follows: Antimicrobial activity, paper disc method. Format: cell-based. The settings on record: 40 μg per disc. How it is done:
as §1

In series [20] the test system is Escherichia coli multi resistant. The series is described as follows: Antimicrobial activity, paper disc method. Format: cell-based. Particulars: 40 μg per disc. The protocol:
as §1

In series [21] the test system is Fusarium oxysporum IFO 9761. The series is described as follows: Antimicrobial activity, paper disc method. Particulars: 40 μg per disc. Format: cell-based. The protocol: as §1
The test system of series [22] is Micrococcus luteus IFO 12708. In words: Antimicrobial activity, paper disc method. It counts as cell-based. Particulars: 40 μg per disc. How it is done: as §1
The subject of series [23] is Pseudomonas aeruginosa IFO 13130. The series is described as follows: Antimicrobial activity, paper disc method. Format: cell-based. The settings on record: 40 μg per disc. How it is done: as §1
For series [24], the system named is Salmonella typhimurium TV 119. In words: Antimicrobial activity, paper disc method. Format: cell-based. Particulars: 40 μg per disc. How it is done: as §1
The subject of series [25] is Schizosaccharomyces Pombe IFO 0638. In words: Antimicrobial activity, paper disc method. Format: cell-based. Particulars: 40 μg per disc. The protocol: as §1
For series [26], the system named is Staphylococcus aureus IFO 12732. The series is described as follows: Antimicrobial activity, paper disc method. Format: cell-based. The settings on record: 40 μg per disc. How it is done:
as §1

Series [27] relates to Staphylococcus aureus multi resistant. In words: Antimicrobial activity, paper disc method. Format: cell-based. Particulars: 40 μg per disc. How it is done:
as §1

The test system of series [28] is Trichophyton rubrum IFO 6203. In words: Antimicrobial activity, paper disc method. It counts as cell-based. Particulars: 40 μg per disc. How it is done: as §1
The nature of series [29]: Solubility in solvents. Particulars: organic solvents and water, qualitative.
Where [30] appears, read: ( ) indicates partial inhibition.

On to `CC[C@H](C)[C@H](NC(=O)[C@H](Cc1ccccc1)NC(=O)[C@@H](NC(=O)[C@H](Cc1c[nH]cn1)NC(=O)CNC(=O)CNC(=O)[C@H](Cc1ccccc1)NC(=O)[C@H](CC(C)C)NC(=O)[C@@H](N)CC(=O)NCC(=O)N[C@@H](Cc1ccc(O)cc1)C(=O)N1CCC[C@H]1C(=O)N[C@@H](Cc1c[nH]c2ccccc12)C(=O)N[C@@H](Cc1c[nH]c2ccccc12)C(=O)N[C@@H](CC(=O)O)C(=O)N[C@@H](Cc1ccc(O)cc1)C(=O)N[C@@H](CCCNC(=N)N)C(=O)O)[C@@H](C)O)C(=O)N[C@@H](CO)C(=O)N1CCC[C@H]1C(=O)O` [SNA-115T] (I: H-DLFGGHTFISP-OH / II: GYPWWDYR-OH; amide I:1-II:N), for which, in series [1], the half-maximal inhibitory concentration (IC50) was 1300 nM. In [1], the inhibitory pattern result is “competitive inhibition”. Further, the Ki in [1] is 475 nM and 480 nM. The Inhibition zone in [2] was found to be 0 mm; in [3] it was 0 mm; in series [4], 0 mm; in series [5] it was 0 mm; in series [6], 0 mm; in series [7] (paper disc, 40 μg per disc) it was 0 mm. The Inhibition zone in series [8] was found to be 0 mm; in series [9], 0 mm; in [10] (paper disc, 40 μg per disc), 0 mm. This molecule also gave an acute toxicity in series [11] of no less than 10 mg/kg.
In the case of `CC[C@H](C)[C@H](NC(=O)[C@H](Cc1ccccc1)NC(=O)[C@@H](NC(=O)[C@H](Cc1c[nH]cn1)NC(=O)CNC(=O)CNC(=O)[C@H](Cc1ccccc1)NC(=O)[C@H](CC(C)C)NC(=O)[C@@H]1CC(=O)NCC(=O)N[C@@H](Cc2ccc(O)cc2)C(=O)N2CCC[C@H]2C(=O)N[C@@H](Cc2c[nH]c3ccccc23)C(=O)N[C@@H](Cc2c[nH]c3ccccc23)C(=O)N[C@@H](CC(=O)O)C(=O)N[C@@H](Cc2ccc(O)cc2)C(=O)N[C@@H](CCCNC(=N)N)C(=O)N1)[C@@H](C)O)C(=O)N[C@@H](CO)C(=O)N1CCC[C@H]1C(=O)O` [SNA-115] (GYPWWDYRDLFGGHTFISP-OH; lactam N-9), in series [1], the inhibitory pattern result is recorded as “competitive inhibition”. Also, the “IC50 against cell proliferation” value in series [12] and in [13] was > 1,000 μg/ml each time. Further, the Inhibition zone in series [14], in series [15], in series [16], in series [17], in series [18] and in series [19] was 0 mm throughout. Besides, the Inhibition zone in [20], in [21], in [22], in series [23], in series [24] and in [25] was 0 mm in each case. The Inhibition zone in series [26] is 0 mm; in series [27], 0 mm; in series [28] it was 0 mm; in series [2] it was 0 mm; in series [3], 10.6 mm and 16.8 mm; in [4], 0 mm. Further, the Inhibition zone in series [5] was 0 mm; in series [6], 14.5 mm and 13.8 mm; in series [7] it was 11.5 mm; in series [8], 0 mm; in series [9], 0 mm; in series [10], 0 mm. The “Inhibition zone, partial inhibition (value in parentheses)” value in [3] (setting [30]) and in series [5] (setting [30]) was 15.2 mm each time. In addition, the “Inhibition zone (class symbol)” value in series [7] is given as “+ (key: + indicates inhibitory zone diameter of 10 mm or less)”.
For `CC[C@H](C)[C@H](NC(=O)[C@H](Cc1ccccc1)NC(=O)[C@@H](NC(=O)[C@H](Cc1cnc[nH]1)NC(=O)CNC(=O)CNC(=O)[C@H](Cc1ccccc1)NC(=O)[C@H](CC(C)C)NC(=O)[C@@H]1CC(=O)NCC(=O)N[C@@H](Cc2ccc(O)cc2)C(=O)N2CCC[C@H]2C(=O)N[C@@H](Cc2c[nH]c3ccccc23)C(=O)N[C@@H](Cc2c[nH]c3ccccc23)C(=O)N[C@@H](CC(=O)O)C(=O)N[C@@H](Cc2ccc(O)cc2)C(=O)N[C@@H](CCCNC(=N)N)C(=O)N1)[C@@H](C)O)C(=O)N[C@@H](CO)C(=O)N1CCC[C@H]1C(=O)O` [SNA-115] (GYPWWDYRDLFGGHTFISP-OH; lactam N-9), in series [1], the IC50 was 1130 nM and 1100 nM; the inhibitory constant (Ki) is 697 nM and 700 nM. Besides, the Solubility entry in series [29] was “Soluble in methanol, dimethylsulfoxide, butanol and ethanol, and insoluble in acetonitrile, chloroform, acetone and water”. This molecule showed an acute toxicity in series [11] of no less than 10 mg/kg.

For the origin of these results see patent US5449750A, “Prolyl endopeptidase inhibitors SNA-115 and SNA-115T, and process for the production and productive strain thereof” (Snow Brand Milk Products Co., Ltd., priority 1991, dated 1995).
